Measurements from patent publication US8076347B2, “Compounds and methods for the treatment of cancer” (University of Georgia Research Foundation, Inc., priority 1995, dated 2011).
Entries after “also recorded” stand apart in the source; their conditions may differ.

Assays:
tumor cell lines = type: cell-based
Colon 38 tumor cells = experiment: In vivo treatment of Colon 38 tumor cells implanted sc in BDF1 mice; conditions: 25 mg/kg/dose twice daily for five days
Excerpt: Colon 38 tumor cells were implanted sc to BDF1 mice.

[1] = Phosphorylation to nucleotides in vivo
Leukemia P388 cells = experiment: In vivo treatment of leukemia P388 cells implanted ip in BDF1 mice; conditions: 25 × 2 × 5 mg/kg ip, twice a day on days 1 to 5
Excerpt: 10^6 Leukemia P388 cells were implanted ip to BDF1 mice obtained from Southern Research Institute, Alabama.

[2] = target: human deoxycytidine kinase (Homo sapiens, UniProt P27707); experiment: In vitro enzymatic studies of phosphorylation; type: biochemical
Sequence of human deoxycytidine kinase (P27707 whole entry): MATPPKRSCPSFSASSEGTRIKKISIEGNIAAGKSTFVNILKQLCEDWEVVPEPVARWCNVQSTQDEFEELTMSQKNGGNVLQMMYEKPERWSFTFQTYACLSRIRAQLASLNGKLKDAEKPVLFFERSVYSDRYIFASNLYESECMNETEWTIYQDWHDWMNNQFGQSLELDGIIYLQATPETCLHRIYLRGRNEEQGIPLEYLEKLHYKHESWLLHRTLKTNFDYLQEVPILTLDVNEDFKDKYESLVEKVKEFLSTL

HepG2 cells = experiment: Activity against HepG2 cells in nude mice; type: in vivo
cytidine deaminase = cytidine deaminase (Homo sapiens, UniProt P32320); experiment: Enzymatic studies of deamination; type: biochemical
Sequence of cytidine deaminase (P32320 whole entry, species assumed): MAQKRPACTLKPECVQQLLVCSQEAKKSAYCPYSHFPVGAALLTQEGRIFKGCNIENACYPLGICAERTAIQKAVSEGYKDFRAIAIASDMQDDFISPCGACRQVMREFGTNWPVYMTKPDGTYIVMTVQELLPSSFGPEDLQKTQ

SMILES | cytotoxicity in all of the tumor cell lines tested (tumor cell lines) | effectiveness compared with AraC (tumor cell lines; KB, DU-145 and PC-3 cell lines) | colon tumor cell growth (FIG. 2) (Colon 38 tumor cells) | phosphorylation to mono-, di- and tri-phosphate nucleotide [1] | Cures/Total (survivors equal or greater than 45 day life span) (Leukemia P388 cells; 5 mg/kg) | ILS (Increased Life Span percent above control) (Leukemia P388 cells; 10^6 P388 cells ip on day 0) [%] | phosphorylation by human deoxycytidine kinase [2] | activity against HepG2 cells in nude mice (HepG2 cells) | deamination / substrate for deaminase (cytidine deaminase)
O=c1ccn(C2COC(CO)O2)c(=O)[nH]1 (single isomer, unassigned; (-)) [(−)-OddU, reference compound] | not toxic |  |  |  |  |  |  |  | 
Nc1ccn([C@@H]2CO[C@H](CO)O2)c(=O)n1 [(−)-OddC, (−)-(2S,4S)-1-(2-hydroxymethyl-1,3-dioxolan-4-yl)cytosine] | more cytotoxic than AraC | significantly more effective than AraC | retarded | can be phosphorylated | 1/6 | 103 | can be phosphorylated by this enzyme | active | not a substrate for deaminase; also recorded: not deaminated
Nc1ccn([C@@H]2O[C@H](CO)[C@@H](O)[C@@H]2O)c(=O)n1 [AraC, Cytosine arabinoside, reference compound] |  |  |  |  |  |  |  | inactive | 
